{"source": "paper PMC7708037", "about": "“Targeting OGG1 arrests cancer cell proliferation by inducing replication stress” (Nucleic Acids Research, 2020)", "key": {"[1]": {"tested_on": "OGG1 substrate lesions in A3 cells", "experiment": "OGG1-modified Comet assay", "format": "cell-based, human", "settings": "10 μM, 72 h", "experimental": "8-oxodG detection in genomic DNA through LC–MS/MS ([39]) and single-cell electrophoresis ([40]) were performed as described.\nFigure 5. Effect of TH5487 on DNA lesions, DNA damage markers and DNA replication. (A) 8-oxodG accumulation in A3 cells. A3 cells were treated with 20 mM KBrO3 for 1 h or with 10 μM TH5487 for the indicated times, and the amount of genomic 8-oxodG was quantified with LC-MS/MS. Data are average ±SD of five replicates from two independent experiments. (B) Comet assay. A3 cells were treated with 10 μM TH5487 for 72 h and strand-breaks and OGG1 substrate lesions were analyzed with the OGG1-modified Comet assay. Representative images of cells are shown. (C) Violin blot of Comet tail moment. Cells were treated as in B, and the tail moment of the cells were analyzed using blinded automatic analysis (n = 200 per condition from two independent experiments). The full line indicates median, and the dotted lines quartiles. (D) Violin blot of phosphorylated γH2AX intensity. A3 cells were treated with 0.1% DMSO or 10 μM TH5487 for the indicated times and stained for phosphorylated γH2AX. […] At least 33 000 nuclei per group were quantified from three independent experiments. […] At least 300 forks were scored per condition. Statistical significance was determined using unpaired, two-sided t-tests (**P < 0.01, ***P < 0.001 and ****P < 0.0001; ns, non-significant)."}, "γH2AX in A3 cells": {"tested_on": "γH2AX in A3 cells", "experiment": "Phosphorylated γH2AX (immunofluorescence / flow cytometry)", "format": "cell-based, human", "settings": "10 μM", "experimental": "A3 cells were seeded in a 96-well plate 24 h prior to start of the experiment. Cells were then treated with 10 μM TH5487, for 24, 48 and 72 h, respectively or with 2 mM hydroxyurea for 1 h. Final DMSO concentration was 0.2%. After the treatment, cells were transferred to an imaging plate (black Falcon 96-well plate) pre-coated with 0.1% poly L-lysine (Sigma). Cells were allowed to attach for 15 minutes and were then fixed with 4% paraformaldehyde. The plate was washed with 0.05% Tween 20 in PBS, cells were permeabilized with 0.5% Triton-X100 in PBS and blocked with 2% bovine serum albumin in PBS. […] Data from three independent experiments were pooled and analyzed for statistical significance by one-way analysis of variance.\nAt the indicated time points, compound/dox treated cells were incubated in medium containing 10 μM 5-ethynyl-2′-deoxyuridine (EdU) (Thermo Fisher, A10044) for 20 min. […] Data was analyzed using Kaluza® Flow Analysis Software (Beckman Coulter).\nFigure 5. […] A3 cells were treated with 20 mM KBrO3 for 1 h or with 10 μM TH5487 for the indicated times, and the amount of genomic 8-oxodG was quantified with LC-MS/MS. […] A3 cells were treated with 10 μM TH5487 for 72 h and strand-breaks and OGG1 substrate lesions were analyzed with the OGG1-modified Comet assay. […] At least 33 000 nuclei per group were quantified from three independent experiments. […]"}}, "data": [{"smiles": "O=C(Nc1ccc(I)cc1)N1CCC(n2c(=O)[nH]c3c(Br)cccc32)CC1", "note": "[TH5487]", "values": [{"measurement": "Increase in OGG1-induced tail length (Comet)", "setting": "[1]", "result": "~50", "unit": "%"}, {"measurement": "Cell cycle distribution of γH2AX positive cells", "setting": "γH2AX in A3 cells; 72 h", "result": "confined to S-phase cells"}, {"measurement": "Phosphorylated γH2AX", "setting": "γH2AX in A3 cells; after 24 h", "result": "significant increase"}]}]}
